Measured values reported in ChEMBL document CHEMBL2429768, “Eco-friendly synthesis and antimicrobial activities of substituted-5-(1H-indol-3-yl)methylene)-2,2-dimethyl-1,3-dioxane-4,6-dione derivatives” (2013).
Converted amounts (≈) assume the structure as drawn.

Tests used:
Type in all cases: functional
Aspergillus niger [1] = experiment: Antifungal activity against Aspergillus niger at 50 ug/ml after 72 hrs by agar well diffusion method; conditions: read-out: DIZ
Fusarium oxysporum [2] = experiment: Antifungal activity against Fusarium oxysporum at 500 ug/ml after 72 hrs by agar well diffusion method; conditions: read-out: DIZ
Fusarium oxysporum [3] = experiment: Antifungal activity against Fusarium oxysporum at 300 ug/ml after 72 hrs by agar well diffusion method; conditions: read-out: DIZ
Fusarium oxysporum [4] = experiment: Antifungal activity against Fusarium oxysporum at 200 ug/ml after 72 hrs by agar well diffusion method; conditions: read-out: DIZ
Fusarium oxysporum [5] = experiment: Antifungal activity against Fusarium oxysporum at 100 ug/ml after 72 hrs by agar well diffusion method; conditions: read-out: DIZ
Fusarium oxysporum [6] = experiment: Antifungal activity against Fusarium oxysporum at 50 ug/ml after 72 hrs by agar well diffusion method; conditions: read-out: DIZ
Rhizoctonia solani [7] = experiment: Antifungal activity against Rhizoctonia solani at 500 ug/ml after 72 hrs by agar well diffusion method; conditions: read-out: DIZ
Rhizoctonia solani [8] = experiment: Antifungal activity against Rhizoctonia solani at 300 ug/ml after 72 hrs by agar well diffusion method; conditions: read-out: DIZ
Rhizoctonia solani [9] = experiment: Antifungal activity against Rhizoctonia solani at 200 ug/ml after 72 hrs by agar well diffusion method; conditions: read-out: DIZ
Rhizoctonia solani [10] = experiment: Antifungal activity against Rhizoctonia solani at 100 ug/ml after 72 hrs by agar well diffusion method; conditions: read-out: DIZ
Rhizoctonia solani [11] = experiment: Antifungal activity against Rhizoctonia solani at 50 ug/ml after 72 hrs by agar well diffusion method; conditions: read-out: DIZ
Bacillus subtilis [12] = experiment: Antibacterial activity against Bacillus subtilis at 500 ug/ml after 24 hrs by agar well diffusion method; conditions: read-out: DIZ
Bacillus subtilis [13] = experiment: Antibacterial activity against Bacillus subtilis at 300 ug/ml after 24 hrs by agar well diffusion method; conditions: read-out: DIZ
Bacillus subtilis [14] = experiment: Antibacterial activity against Bacillus subtilis at 200 ug/ml after 24 hrs by agar well diffusion method; conditions: read-out: DIZ
Bacillus subtilis [15] = experiment: Antibacterial activity against Bacillus subtilis at 100 ug/ml after 24 hrs by agar well diffusion method; conditions: read-out: DIZ
Bacillus subtilis [16] = experiment: Antibacterial activity against Bacillus subtilis at 50 ug/ml after 24 hrs by agar well diffusion method; conditions: read-out: DIZ
Staphylococcus aureus [17] = experiment: Antibacterial activity against Staphylococcus aureus ATCC 6538 at 500 ug/ml after 24 hrs by agar well diffusion method; conditions: ATCC 6538, 24 h, read-out: DIZ
Staphylococcus aureus [18] = experiment: Antibacterial activity against Staphylococcus aureus ATCC 6538 at 300 ug/ml after 24 hrs by agar well diffusion method; conditions: ATCC 6538, 24 h, read-out: DIZ
Staphylococcus aureus [19] = experiment: Antibacterial activity against Staphylococcus aureus ATCC 6538 at 200 ug/ml after 24 hrs by agar well diffusion method; conditions: ATCC 6538, 24 h, read-out: DIZ
Staphylococcus aureus [20] = experiment: Antibacterial activity against Staphylococcus aureus ATCC 6538 at 100 ug/ml after 24 hrs by agar well diffusion method; conditions: ATCC 6538, 24 h, read-out: DIZ
Escherichia coli [21] = experiment: Antibacterial activity against Escherichia coli ATCC 8739 at 300 ug/ml after 24 hrs by agar well diffusion method; conditions: ATCC 8739, 24 h, read-out: DIZ
Escherichia coli [22] = experiment: Antibacterial activity against Escherichia coli ATCC 8739 at 200 ug/ml after 24 hrs by agar well diffusion method; conditions: ATCC 8739, 24 h, read-out: DIZ
Escherichia coli [23] = experiment: Antibacterial activity against Escherichia coli ATCC 8739 at 100 ug/ml after 24 hrs by agar well diffusion method; conditions: ATCC 8739, 24 h, read-out: DIZ
Escherichia coli [24] = experiment: Antibacterial activity against Escherichia coli ATCC 8739 at 50 ug/ml after 24 hrs by agar well diffusion method; conditions: ATCC 8739, 24 h, read-out: DIZ
Klebsiella pneumoniae [25] = experiment: Antibacterial activity against Klebsiella pneumoniae at 500 ug/ml after 24 hrs by agar well diffusion method; conditions: read-out: DIZ
Klebsiella pneumoniae [26] = experiment: Antibacterial activity against Klebsiella pneumoniae at 300 ug/ml after 24 hrs by agar well diffusion method; conditions: read-out: DIZ
Klebsiella pneumoniae [27] = experiment: Antibacterial activity against Klebsiella pneumoniae at 200 ug/ml after 24 hrs by agar well diffusion method; conditions: read-out: DIZ
Klebsiella pneumoniae [28] = experiment: Antibacterial activity against Klebsiella pneumoniae at 50 ug/ml after 24 hrs by agar well diffusion method; conditions: read-out: DIZ
Escherichia coli [29] = experiment: Antibacterial activity against Escherichia coli ATCC 8739 at 500 ug/ml after 24 hrs by agar well diffusion method; conditions: ATCC 8739, 24 h, read-out: DIZ
Klebsiella pneumoniae [30] = experiment: Antibacterial activity against Klebsiella pneumoniae at 100 ug/ml after 24 hrs by agar well diffusion method; conditions: read-out: DIZ
Staphylococcus aureus [31] = experiment: Antibacterial activity against Staphylococcus aureus ATCC 6538 at 50 ug/ml after 24 hrs by agar well diffusion method; conditions: ATCC 6538, 24 h, read-out: DIZ
Aspergillus flavus [32] = experiment: Antifungal activity against Aspergillus flavus at 50 ug/ml after 72 hrs by agar well diffusion method; conditions: read-out: DIZ
Aspergillus flavus [33] = experiment: Antifungal activity against Aspergillus flavus at 100 ug/ml after 72 hrs by agar well diffusion method; conditions: read-out: DIZ
Aspergillus flavus [34] = experiment: Antifungal activity against Aspergillus flavus after 72 hrs by agar well diffusion method
Aspergillus niger [35] = experiment: Antifungal activity against Aspergillus niger after 72 hrs by agar well diffusion method
Fusarium oxysporum [36] = experiment: Antifungal activity against Fusarium oxysporum after 72 hrs by agar well diffusion method
Rhizoctonia solani [37] = experiment: Antifungal activity against Rhizoctonia solani after 72 hrs by agar well diffusion method
Bacillus subtilis [38] = experiment: Antibacterial activity against Bacillus subtilis after 24 hrs by agar well diffusion method
Staphylococcus aureus [39] = experiment: Antibacterial activity against Staphylococcus aureus ATCC 6538 after 24 hrs by agar well diffusion method; conditions: ATCC 6538, 24 h
Escherichia coli [40] = experiment: Antibacterial activity against Escherichia coli ATCC 8739 after 24 hrs by agar well diffusion method; conditions: ATCC 8739, 24 h
Klebsiella pneumoniae [41] = experiment: Antibacterial activity against Klebsiella pneumoniae after 24 hrs by agar well diffusion method
Aspergillus flavus [42] = experiment: Antifungal activity against Aspergillus flavus at 500 ug/ml after 72 hrs by agar well diffusion method; conditions: read-out: DIZ
Aspergillus flavus [43] = experiment: Antifungal activity against Aspergillus flavus at 300 ug/ml after 72 hrs by agar well diffusion method; conditions: read-out: DIZ
Aspergillus flavus [44] = experiment: Antifungal activity against Aspergillus flavus at 200 ug/ml after 72 hrs by agar well diffusion method; conditions: read-out: DIZ
Aspergillus niger [45] = experiment: Antifungal activity against Aspergillus niger at 500 ug/ml after 72 hrs by agar well diffusion method; conditions: read-out: DIZ
Aspergillus niger [46] = experiment: Antifungal activity against Aspergillus niger at 300 ug/ml after 72 hrs by agar well diffusion method; conditions: read-out: DIZ
Aspergillus niger [47] = experiment: Antifungal activity against Aspergillus niger at 200 ug/ml after 72 hrs by agar well diffusion method; conditions: read-out: DIZ
Aspergillus niger [48] = experiment: Antifungal activity against Aspergillus niger at 100 ug/ml after 72 hrs by agar well diffusion method; conditions: read-out: DIZ

CC1(C)OC(=O)C(=Cc2c[nH]c3ccc([N+](=O)[O-])cc23)C(=O)O1
zone of inhibition at 50 µg/mL (Aspergillus niger [1]): 7 mm
zone of inhibition at 500 µg/mL (Fusarium oxysporum [2]): 31 mm
zone of inhibition at 300 µg/mL (Fusarium oxysporum [3]): 21 mm
zone of inhibition at 200 µg/mL (Fusarium oxysporum [4]): 17 mm
zone of inhibition at 100 µg/mL (Fusarium oxysporum [5]): 14 mm
zone of inhibition at 50 µg/mL (Fusarium oxysporum [6]): 10 mm
zone of inhibition at 500 µg/mL (Rhizoctonia solani [7]): 32 mm
zone of inhibition at 300 µg/mL (Rhizoctonia solani [8]): 24 mm
zone of inhibition at 200 µg/mL (Rhizoctonia solani [9]): 19 mm
zone of inhibition at 100 µg/mL (Rhizoctonia solani [10]): 15 mm
zone of inhibition at 50 µg/mL (Rhizoctonia solani [11]): 10 mm
zone of inhibition at 500 µg/mL (Bacillus subtilis [12]): 24 mm
zone of inhibition at 300 µg/mL (Bacillus subtilis [13]): 16 mm
zone of inhibition at 200 µg/mL (Bacillus subtilis [14]): 13 mm
zone of inhibition at 100 µg/mL (Bacillus subtilis [15]): 11 mm
zone of inhibition at 50 µg/mL (Bacillus subtilis [16]): 6 mm
zone of inhibition at 500 µg/mL (Staphylococcus aureus [17]): 28 mm
zone of inhibition at 300 µg/mL (Staphylococcus aureus [18]): 18 mm
zone of inhibition at 200 µg/mL (Staphylococcus aureus [19]): 15 mm
zone of inhibition at 100 µg/mL (Staphylococcus aureus [20]): 12 mm
zone of inhibition at 300 µg/mL (Escherichia coli [21]): 22 mm
zone of inhibition at 200 µg/mL (Escherichia coli [22]): 17 mm
zone of inhibition at 100 µg/mL (Escherichia coli [23]): 15 mm
zone of inhibition at 50 µg/mL (Escherichia coli [24]): 10 mm
zone of inhibition at 500 µg/mL (Klebsiella pneumoniae [25]): 34 mm
zone of inhibition at 300 µg/mL (Klebsiella pneumoniae [26]): 25 mm
zone of inhibition at 200 µg/mL (Klebsiella pneumoniae [27]): 20 mm
zone of inhibition at 50 µg/mL (Klebsiella pneumoniae [28]): 11 mm
zone of inhibition at 500 µg/mL (Escherichia coli [29]): 33 mm
zone of inhibition at 100 µg/mL (Klebsiella pneumoniae [30]): 16 mm
zone of inhibition at 50 µg/mL (Staphylococcus aureus [31]): 8 mm
zone of inhibition at 50 µg/mL (Aspergillus flavus [32]): 5 mm
zone of inhibition at 100 µg/mL (Aspergillus flavus [33]): 10 mm
MIC (Aspergillus flavus [34]): 35 µg/mL (≈ 111 µM)
MIC (Aspergillus niger [35]): 30 µg/mL (≈ 94.9 µM)
MIC (Fusarium oxysporum [36]): 25 µg/mL (≈ 79 µM)
MIC (Rhizoctonia solani [37]): 25 µg/mL (≈ 79 µM)
MIC (Bacillus subtilis [38]): 20 µg/mL (≈ 63.2 µM)
MIC (Staphylococcus aureus [39]): 20 µg/mL (≈ 63.2 µM)
MIC (Escherichia coli [40]): 10 µg/mL (≈ 31.6 µM)
MIC (Klebsiella pneumoniae [41]): 10 µg/mL (≈ 31.6 µM)
zone of inhibition at 500 µg/mL (Aspergillus flavus [42]): 24 mm
zone of inhibition at 300 µg/mL (Aspergillus flavus [43]): 17 mm
zone of inhibition at 200 µg/mL (Aspergillus flavus [44]): 13 mm
zone of inhibition at 500 µg/mL (Aspergillus niger [45]): 26 mm
zone of inhibition at 300 µg/mL (Aspergillus niger [46]): 19 mm
zone of inhibition at 200 µg/mL (Aspergillus niger [47]): 15 mm
zone of inhibition at 100 µg/mL (Aspergillus niger [48]): 11 mm
